Tests used:
Format in all cases: functional
[1] = test system: Mycobacterium tuberculosis; assay: Antituberculosis activity against Mycobacterium tuberculosis by bactec 460 TB method
[2] = test system: Mycolicibacterium smegmatis; assay: Antituberculosis activity against linezolid-resistant Mycobacterium smegmatis without mutation in 23S rRNA
[3] = test system: Mycobacterium tuberculosis; assay: Antituberculosis activity against Mycobacterium tuberculosis by bactec MGIT 960 method

Measured: MIC

CC(=O)NC[C@H]1CN(c2ccc(N3CCOCC3)c(F)c2)C(=O)O1 [LINEZOLID]
4 µg/mL: all assays above
